Experimental findings from ChEMBL document CHEMBL5030565, “Stapled Peptides Targeting SARS-CoV-2 Spike Protein HR1 Inhibit the Fusion of Virus to Its Cell Receptor” (J Med Chem, 2021) are described below.

Series [1] has as its system SARS-CoV-2. As to the kind of experiment: Antiviral activity against pseudotyped SARS-CoV-2 infected in Huh7 cells expressing hACE2 at 10 uM preincubated for 1 hr followed by cell infection measured after 2 days by bright-Glo luciferase assay. The class given is functional, Severe acute respiratory syndrome coronavirus 2, Huh-7. Particulars: time 49 hrs.
The target in series [2] is Spike glycoprotein (Severe acute respiratory syndrome coronavirus 2) (UniProt P0DTC2). Put plainly: Inhibition of SARS-CoV-2 spike glycoprotein expressed in HEK293T cells transfected with pAAV-CAG-HnCovS-RFP assessed as inhibition of membrane fusion to Huh-7 cells expressing hACE2 at 30 uM measured after 4 hrs by cell-cell fusion based fluorescence assay. The class given is functional.

Series [3] concerns SARS-CoV-2. As to the kind of experiment: Antiviral activity against pseudotyped SARS-CoV-2 infected in Calu-3 cells at higher concentration. The class given is functional, organism-based. The note with it: Severe acute respiratory syndrome coronavirus 2.
For another series, the target named is chymotrypsin (Homo sapiens, UniProt P17538+P40313+Q6GPI1+Q99895). As to the kind of experiment: Stability of the compound in PBS at pH 7.4 assessed as chymotrypsin (unknown origin)-mediated proteolysis by measuring remaining compound after 12 hrs by HPLC analysis. The format is ADME, protein assay. The note with it: read-out: Stability.
The subject of series [4] is SARS-CoV-2. Put plainly: Antiviral activity against pseudotyped SARS-CoV-2 infected in Huh7 cells expressing hACE2 preincubated for 1 hr followed by cell infection measured after 2 days by bright-Glo luciferase assay. The class given is functional, organism-based. The note with it: Severe acute respiratory syndrome coronavirus 2, Huh-7.
The test system of series [5] is SARS-CoV-2. As to the kind of experiment: Antiviral activity against SARS-CoV-2 infected in Vero E6 cells assessed as reduction in viral replication preincubated for 30 mins followed by viral infection measured after 72 hrs by crystal violet staining based plaque assay. The class given is functional, organism-based. Particulars: Severe acute respiratory syndrome coronavirus 2, Vero C1008.

Series [6] deals with SARS-CoV-2. As to the kind of experiment: Antiviral activity against SARS-CoV-2 infected in Vero E6 cells assessed as reduction in viral replication at 12.5 uM preincubated for 30 mins followed by viral infection measured after 72 hrs by crystal violet staining based plaque assay. Also noted: scale not given: the % may be the effect or the level left. The class given is functional, Severe acute respiratory syndrome coronavirus 2.

Activity calls are given as the source filed them. The calls are words filed in the database; no cut-off is given here. A value given as a limit tells only on which side of the number the result lay.

For `CC[C@H](C)[C@H](NC(=O)CNC(=O)[C@H](CO)NC(=O)[C@@H](NC(=O)[C@H](CC(=O)O)NC(C)=O)[C@@H](C)CC)C(=O)N[C@@H](CC(N)=O)C(=O)N[C@@H](C)C(=O)N[C@@H](CO)C(=O)N[C@H](C(=O)N[C@H](C(=O)N[C@@H](CC(N)=O)C(=O)N[C@H](C(=O)N[C@@H](CCC(N)=O)C(=O)N[C@@H](CCCCN)C(=O)N[C@@H](CCC(=O)O)C(=O)N[C@H](C(=O)N[C@@H](CC(=O)O)C(=O)N[C@@H](CCCNC(=N)N)C(=O)N[C@@H](CC(C)C)C(=O)N[C@@]1(C)CCC/C=C\CCC[C@@](C)(C(=O)N[C@@H](CC(N)=O)C(=O)N[C@@H](CC(C)C)C(=O)N[C@@H](CC(N)=O)C(=O)N[C@@H](CCC(=O)O)C(=O)N[C@@H](CO)C(=O)N[C@@H](CC(C)C)C(=O)N[C@H](C(=O)N[C@@H](CC(=O)O)C(=O)N[C@@H](CC(C)C)C(=O)N[C@@H](CCC(N)=O)C(=O)N[C@@H](CCC(=O)O)C(=O)N[C@@H](CC(C)C)C(N)=O)[C@@H](C)CC)NC(=O)[C@H](C)NC(=O)[C@H](C(C)C)NC(=O)[C@H](CCC(=O)O)NC1=O)[C@@H](C)CC)[C@@H](C)CC)C(C)C)C(C)C`, the figures for the Activity in the series with SARS-CoV-2 [1] and in the series with SARS-CoV-2 [6] were 69.7% and 55%, respectively. The inhibition result in series [2] is “Active”. Further, in the series with SARS-CoV-2 [3], the outcome was Active. Also, at chymotrypsin, the remaining at 12 h was more than 80%. For the same compound, the EC50 amounted to 4.05 µM in the series with SARS-CoV-2 [4] and 6.56 µM with SARS-CoV-2 [5].
